By IC50 is commonly meant the concentration that gives 50% inhibition. The low end stands for greater potency, the high end for weaker potency.

The values that follow come from patent US12325709B2, “Cannabinoid derivatives” (CANOPY GROWTH CORPORATION, priority 2019, dated 2025).

For one assay, the target named is T1, human CB1 receptor (Homo sapiens, UniProt P21554).
T1 construct: host or cells: CHO-K1 (Chinese hamster ovary) cells, stably transfected; membranes prepared in house
Briefly: CB1 radioligand competitive binding assay ([3H]CP 55,940 displacement).

In the next assay the target is T2, human CB2 receptor (Homo sapiens, UniProt P34972).
T2 construct: host or cells: CHO-K1 (Chinese hamster ovary) cells, stably transfected; membranes prepared in house
Briefly: CB2 radioligand competitive binding assay ([3H]CP 55,940 displacement). Conditions: for Selectivity CB2: fold difference in binding between CB1 and CB2, shown in column of receptor with higher affinity, 1.00 in both = about the same affinity. Here is the method:
Compounds of the present disclosure were tested for CB1 receptor binding affinity and for CB2 receptor binding affinity. As used herein, “binding affinity” is represented by the IC50 value, which was experimentally determined as described herein. The lower the IC50 value the higher the binding affinity.
The membranes were prepared from CHO-K1 (Chinese hamster ovary) cells stably transfected with the human CB2 receptor (Cat. #ES-111-C; Perkin Elmer, Boston, MA). The cells were grown adherently and maintained in Ham's F12 medium containing 10% fetal bovine serum (FBS), penicillin, streptomycin and geneticin (G418) at 37° C. in a humid atmosphere of 5% CO2 following the manufacturer's instructions.
For membrane preparation the cells were washed with PBS and scraped off the plates in cold homogenization buffer (25 mM HEPES (pH 7.4), 2 mM EDTA) containing protease inhibitor cocktail (Sigma Cat. #P8340). The cell suspension was homogenized with a Pro-PK-01200D Polytron Homogenizer (Pro Scientific) and then centrifuged for 30 min at 120,000×g. The supernatant was discarded and the pellet was re-suspended in the homogenization buffer and stored at −80° C. until the time of use.
In this experiment, 3H radiolabeled CP 55,940, i.e. [3H]CP 55,940 (Perkin Elmer, Boston, MA), was used as a radioligand for the CB2 receptor to determine the binding affinity of compounds for the CB2 receptor (Scheme 3; above).
The competition binding experiments (single dose and dose-response) were performed by incubating 0.6 nM of [3H]CP55,940 (specific activity 101 Ci/mmol, Perkin Elmer) and different concentrations of compounds disclosed herein with membranes prepared as above from CHO-K1 cells expressing human CB2 receptor (1 μg of protein/well), 50 mM Tris-HCl (pH 7.4), 5 mM MgCl2, 1 mM CaCl2, and 2 mg/mL BSA.
For the dose-response experiments the test compounds were sequentially diluted to provide the desired concentration range for the IC50 determination. In each case the compounds were pre-incubated with the membrane for 20 min, before adding the radioligand.
After incubation with the radioligand for 60 min at 37° C., the incubation was terminated by rapid filtration of assay mixture through MultiScreen®HTS^+ 96-well filter plates (Millipore, Cat. #MSFCNXB), pre-soaked for 60 min with 50 mM Tris-HCl (pH 7.4) containing 0.33% polyethylenimine (PEI). The nonspecific binding (NSB) was determined in the presence of 10 μM unlabelled CP55,940. After drying the filter plate at 50° C. for at least 60 min, the filter-bound radioactivity was determined by scintillation spectrometry using the 1450 MicroBeta Plate Counter (Perkin Elmer, Boston, MA).

A value given as a limit tells only on which side of the number the result lay.

T2 sequence (P34972 whole entry): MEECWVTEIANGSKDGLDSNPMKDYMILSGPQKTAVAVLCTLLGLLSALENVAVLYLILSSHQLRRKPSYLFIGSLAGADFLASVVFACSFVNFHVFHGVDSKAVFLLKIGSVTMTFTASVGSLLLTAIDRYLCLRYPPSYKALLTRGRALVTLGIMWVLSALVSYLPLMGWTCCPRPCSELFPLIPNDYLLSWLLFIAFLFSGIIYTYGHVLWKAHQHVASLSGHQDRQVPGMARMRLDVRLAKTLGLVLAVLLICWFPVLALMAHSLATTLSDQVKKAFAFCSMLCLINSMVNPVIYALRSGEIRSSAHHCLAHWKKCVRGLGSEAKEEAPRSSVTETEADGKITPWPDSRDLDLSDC
T1 sequence (P21554 whole entry): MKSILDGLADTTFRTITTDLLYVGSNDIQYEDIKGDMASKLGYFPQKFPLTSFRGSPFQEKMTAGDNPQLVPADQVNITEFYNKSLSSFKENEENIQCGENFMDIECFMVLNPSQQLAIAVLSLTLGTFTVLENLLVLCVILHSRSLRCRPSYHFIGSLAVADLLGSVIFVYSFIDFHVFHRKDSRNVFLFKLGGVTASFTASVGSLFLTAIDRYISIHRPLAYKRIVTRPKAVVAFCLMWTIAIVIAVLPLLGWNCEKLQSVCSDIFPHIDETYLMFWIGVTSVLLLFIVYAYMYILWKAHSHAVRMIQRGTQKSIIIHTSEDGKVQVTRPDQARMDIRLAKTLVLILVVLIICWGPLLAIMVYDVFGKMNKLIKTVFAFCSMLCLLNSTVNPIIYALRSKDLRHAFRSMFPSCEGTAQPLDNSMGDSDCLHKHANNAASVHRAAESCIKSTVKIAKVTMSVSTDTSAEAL

As for `CCCCCc1cc(O)c(C2C=C(C)CCC2)c(O)c1C(N)=O` (stereo not drawn) [Compound 58c, 2,6-dihydroxy-5′-methyl-4-pentyl-1′,2′,3′,4′-tetrahydro-[1,1′-biphenyl]-3-carboxamide], the concentration for half-maximal inhibition (IC50) on human CB1 receptor is more than 5000 nM. In addition, at human CB2 receptor, the IC50 fell in the range of 1000 to 4990 nM and the “Selectivity CB2” value stood at 11.83 fold.

In the case of `CCCCCc1cc(O)c(-c2cccc(C)c2)c(O)c1CN(C)C(=O)OC` [Compound 59a, methyl ((2,6-dihydroxy-3′-methyl-4-pentyl-[1,1′-biphenyl]-3-yl)methyl)(methyl)carbamate], the IC50 on human CB1 receptor fell in the range of 100 to 990 nM. Besides, at human CB2 receptor, the IC50 was less than 100 nM and the “Selectivity CB2” value turned out to be 10.91 fold.

As to `CCCCCc1cc(O)c(C2C=C(C)CCC2)c(O)c1CN(C)C(=O)OC` (stereo not drawn) [Compound 59c, methyl ((2,6-dihydroxy-5′-methyl-4-pentyl-1′,2′,3′,4′-tetrahydro-[1,1′-biphenyl]-3-yl)methyl)(methyl)carbamate], on human CB1 receptor, the IC50 was 100 to 990 nM. For the same compound, at human CB2 receptor, the IC50 is less than 100 nM and the “Selectivity CB2” value worked out at 9.26 fold.

On to `C=C(C)[C@@H]1CCC(C)=C[C@H]1c1c(O)cc(CCC)c(C(=O)NC)c1O` [Compound 96d, 2,6-dihydroxy-N,5′-dimethyl-2′-(prop-1-en-2-yl)-4-propyl-1′,2′,3′,4′-tetrahydro-[1,1′-biphenyl]-3-carboxamide], for which the 50% inhibitory concentration (IC50) at human CB1 receptor and at human CB2 receptor was more than 5000 nM throughout. Moreover, on human CB2 receptor, the “Selectivity CB2” value is listed as 2.59 fold.
